Data reported in BindingDB's records for doi:10.1021/jm9707028 (Boehringer Ingelheim Pharmaceuticals, 1998).

Columns and labels:
Test in all cases: HIV-1 RT Assay
[1] = target: T1, Gag-Pol polyprotein [600-1027,K702N]/[600-1155,K702N] (Human immunodeficiency virus 1, UniProt P03366, K702N)
T1 construct: 600-1027; 600-1155

[2] = target: T2, Gag-Pol polyprotein [600-1027,G789A]/[600-1155,G789A] (Human immunodeficiency virus 1, UniProt P03366, G789A)
T2 construct: 600-1027; 600-1155

[3] = target: T3, Gag-Pol polyprotein [600-1027,V705A]/[600-1155,V705A] (Human immunodeficiency virus 1, UniProt P03366, V705A)
T3 construct: 600-1027; 600-1155

[4] = target: T4, Gag-Pol polyprotein [600-1027,P835L]/[600-1155,P835L] (Human immunodeficiency virus 1, UniProt P03366, P835L)
T4 construct: 600-1027; 600-1155

Row | Compound | IC50 [1] | IC50 [2] | IC50 [3] | IC50 [4]
1 | CCN1c2ncc(CCc3ccncc3)cc2C(=O)N(C)c2ccc(Cl)nc21 [2,8-Substituted Dipyridodiazepinone 37] | 120 nM | 30 nM | 550 nM | 110 nM
2 | CCN1c2ncc(CCc3ccccc3)cc2C(=O)N(C)c2ccc(Cl)nc21 [2,8-Substituted Dipyridodiazepinone 36] | 50 nM | 120 nM | 840 nM | 710 nM
